Assay results from patent US10098900B2, “Pharmaceutical compositions and their use for treatment of cancer and autoimmune diseases” (ZHEJIANG DTRM BIOPHARMA CO. LTD., priority 2015, dated 2018).
Marks after values point to notes of the source that are not given here.

What was measured:
[1] = 28-day toxicity/toxicokinetic (TK) study in dogs; type: in vivo, dog
[2] = system: DoHH-2 lymphoma xenograft; test: Inhibition of tumor growth in vivo, DoHH-2 lymphoma xenograft SCID mouse model; conditions: BID, 21 days
Experimental: (§1) Inhibition Study of Tumor Growth In Vivo:
(§2) SCID mice or nude mice (weighing about 18 g at the beginning of the experiment) were randomly divided into groups by the software in order to achieve close average weights between groups and control the bias within the allowable range. The mice were injected BTK cell lines (TMD-8, WSU-DLCL2 and DoHH-2) for tumor formation. Inhibitors were administered orally once or twice a day, a total of 14 days, 21 days or 28 days. Body weights and tumor volume were recorded.
(§3) Xenograft Tumor Models Inoculated with TMD-8, or DoHH2, or WSU-DLCL2 Tumor Cell Lines:
(§4) TMD-8 is a sensitive human diffuse large B-cell lymphoma cell line, and DoHH2 is a more difficult to treat human follicular lymphoma cell line, while WSU-DLCL2 is a multi-drug resistant (MDR) human non-Hodgkin's lymphoma cell line. Drug combination therapies provide better efficacies in all three tumor models than single targeted agent alone.
(§5) The TMD-8, DoHH2, WSU-DLCL2 tumor cells were maintained in vitro as a suspension culture in RPMI-1640 medium supplemented with 10% heat inactivated fetal calf serum at 37° C. in an atmosphere of 5% CO2 in air. The tumor cells were routinely subcultured twice weekly. The cells growing in an exponential growth phase were harvested and counted for tumor inoculation. Each mouse was inoculated subcutaneously at the right flank with the tumor cells (10×10^6) in 0.2 ml of PBS with Matrigel (1:1) for tumor development. The treatments were started after the average tumor size reached approximately 100-200 mm^3. Each group consisted of 6-10 tumor-bearing mice. The testing article (vehicle, compound or combination) was orally administrated to the mice according to the predetermined doses for 14-days or 21-days. Animal body weight and tumor volume were measured every 2- or 3-days throughout the treatment.

[3] = system: DoHH-2 cell line; test: Inhibition assay of tumor cell activity (cell viability), DoHH-2; type: cell-based; conditions: Homo sapiens, individual compound, read-out: Inh % on DoHH-2 cell line (AVG)
Experimental: (§6) Inhibition Assay of Tumor Cell Activity:
(§7) Tumor cells (TMD-8, DoHH2 and WSU-DLCL2) were transferred and attached to 96-well plates. After one night, blank buffer and selected concentrations (0.01 nM-100 μM) of the test compound solution were added. After 48 hours incubation, CellTiter-Go was added to lyse the cells. Recording luminescent signal and calculate the percent inhibition of cell viability

[4] = 28-day toxicity/toxicokinetic (TK) study in rats
Text: Toxicity and toxicokinetic (TK) studies of the compounds can be performed by well known methods.

[5] = system: resistant WSU-DLCL2 cell line; test: Inhibition assay of tumor cell activity (cell viability), WSU-DLCL2; type: cell-based; conditions: Homo sapiens, WSUDLCL2, individual compound, read-out: Inh % on resistant WSU-DLCL2 cell line (AVG)
Experimental: as §6, §7

[6] = system: adjuvant-induced arthritis; test: Adjuvant-induced arthritis (AA/AIA) model in female Lewis rats (paw volume, clinical score, histopathology); type: in vivo, rat; design: Pathological score (Mean ± SEM), Inflammatory cell infiltration / Pathological score (Mean ± SEM), Pannus growth / Pathological score (Mean ± SEM), Cartilage injury / Pathological score (Mean ± SEM), Bone resorption / Pathological score (Mean ± SEM), Total: scale not given here; conditions: for Paw volume (mL), Mean: 5 mg/kg BID
Text: Adjuvant-Induced Arthritis AA Model: […] All rats except the normal group were immunized with complete Freund's adjuvant (CFA) subcutaneously at the left hind paw to induce arthritis at day 0. […] The treatments were given orally for 3 consecutive weeks. The body weight, paw volume and clinical score were monitored every other day after day 13 throughout the course of the study. At the terminal point, right hind paws were collected for histopathology analysis with H.E. staining.

[7] = system: collagen induced arthritis; test: Collagen-induced arthritis (CIA) model in male DBA/1 mice (clinical score, histopathology); type: in vivo, mouse; design: Clinical Score (Mean) / Pathological score (Mean ± SEM), Inflammatory cell infiltration / Pathological score (Mean ± SEM), Pannus growth / Pathological score (Mean ± SEM), Cartilage injury / Pathological score (Mean ± SEM), Bone resorption / Pathological score (Mean ± SEM), Total: scale not given here
Experimental: Collagen-Induced Arthritis (CIA) Model: The combination of Compounds 3 and 12 was evaluated in collagen induced arthritis (CIA) mouse model in Male DBA/1 mice. The animals were divided into 8 groups, including a normal, a vehicle, […] treatment groups: […] On the same day, immunized mice were randomly divided into 7 groups: […] The treatments were given orally for 2 consecutive weeks. Body weight and clinical score were monitored through the study (recorded three times a week started after second immunization). At the end of the study, animals were euthanized and both hind paws were collected for histopathology analysis.

[8] = system: TMD-8 lymphoma xenograft; test: Inhibition of tumor growth in vivo, TMD-8 lymphoma xenograft SCID mouse model; conditions: TMD-8, Oral, BID
Experimental: as §1, §2, §3, §4, §5

[9] = CIA study, Left hind paw, 3 alone, 1.5 mg/kg QD
[10] = CIA study, Right hind paw, 3 alone, 1.5 mg/kg QD

C=CC(=O)N1CC[C@@H](n2nc(-c3ccc(Oc4c(F)c(F)cc(F)c4F)cc3F)c3c(N)ncnc32)C1 [Compound 3, 1-((R)-3-(4-amino-3-(2-fluoro-4-(2,3,5,6-tetrafluorophenoxy)phenyl)-1H-pyrazolo[3,4-d]pyrimidin-1-yl)pyrrolidin-1-yl)prop-2-en-1-one]
AUC compared with ibrutinib [1]: significantly higher | Cmax ([1]; 15 mg/kg/day, Day 1, Female): 685 ± 212 ng/mL | Antitumor effect (%) ([2]; FIG. 6, Oral, 5 mg/kg): 28.8% | Antitumor effect (%) ([2]; FIG. 6, Oral, 10 mg/kg): 20.1% | Antitumor effect (%) ([2]; FIG. 6, Oral, 30 mg/kg): 35.6% | Antitumor effect (%) ([2]; FIG. 7, Oral, 5 mg/kg): 15.9% | inhibition at 0.01 µM ([3]; 0.01 uM): 15.6% | inhibition at 0.1 µM ([3]; 0.1 uM): 34.8% | inhibition at 1 µM ([3]; 1 uM): 49.9% | difference in drug exposure between Day 1 and Day 28 ([4]; 28-day rat and dog studies): no significant difference | difference in drug exposure between male and female ([4]; 28-day rat and dog studies): no significant difference | AUC compared with ibrutinib ([4]; rats): significantly higher | inhibition at 0.01 µM ([5]; 0.01 uM): -10.1% | inhibition at 0.1 µM ([5]; 0.1 uM): -1.36% | inhibition at 1 µM ([5]; 1 uM): 41% | Paw volume (mL), Mean ([6]; Day 0): 1.04 mL | Paw volume (mL), Mean ([6]; Day 17): 1.87 ns mL | Paw volume (mL), Mean ([6]; Day 26): 2.29** mL | Paw volume (mL), Mean ([6]; Day 28): 2.12*** mL | Paw volume (mL), Mean ([6]; Day 31): 2.12*** mL | Paw volume (mL), Mean ([6]; Day 33): 2.09*** mL | effect on paw volume ([6]; AA rats model, FIG. 13): absent | Pathological score (Mean ± SEM), Bone resorption ([6]; AA study, 3 alone, 5 mg/kg): 3.0 ± 0.45 | Pathological score (Mean ± SEM), Cartilage injury ([6]; AA study, 3 alone, 5 mg/kg): 2.8 ± 0.51 | Pathological score (Mean ± SEM), Inflammatory cell infiltration ([6]; AA study, 3 alone, 5 mg/kg): 3.5 ± 0.34 | Pathological score (Mean ± SEM), Pannus growth ([6]; AA study, 3 alone, 5 mg/kg): 3.2 ± 0.53 | Pathological score (Mean ± SEM), Total ([6]; AA study, 3 alone, 5 mg/kg): 12.5 ± 1.78 | effect on clinical score ([7]; CIA mice model, FIG. 15): absent | Pathological score (Mean ± SEM), Total ([7]; CIA study, 3 alone, 1.5 mg/kg QD): 3.90 ± 1.80 | Pathological score (Mean ± SEM), Bone resorption [7, 9]: 0.60 ± 0.13 | Pathological score (Mean ± SEM), Cartilage injury [7, 9]: 0.80 ± 0.47 | Pathological score (Mean ± SEM), Inflammatory cell infiltration [7, 9]: 1.00 ± 0.47 | Pathological score (Mean ± SEM), Pannus growth [7, 9]: 0.80 ± 0.47 | Pathological score (Mean ± SEM), Bone resorption [7, 10]: 0.10 ± 0.10 | Pathological score (Mean ± SEM), Cartilage injury [7, 10]: 0.20 ± 0.20 | Pathological score (Mean ± SEM), Inflammatory cell infiltration [7, 10]: 0.20 ± 0.20 | Pathological score (Mean ± SEM), Pannus growth [7, 10]: 0.20 ± 0.20 | Clinical Score (Mean) ([7]; CIA study, day 21, 3 alone, 1.5 mg/kg QD): 0.00 | Clinical Score (Mean) ([7]; CIA study, day 32, 3 alone, 1.5 mg/kg QD): 2.60 | Clinical Score (Mean) ([7]; CIA study, day 39, 3 alone, 1.5 mg/kg QD): 4.20*** | Clinical Score (Mean) ([7]; CIA study, day 42, 3 alone, 1.5 mg/kg QD): 4.00*** | Antitumor effect (%) ([8]; FIG. 2, 14 days, 10 mg/kg): 63% | Antitumor effect (%) ([8]; FIG. 2, 14 days, 30 mg/kg): 89% | Antitumor effect (%) ([8]; FIG. 3, 21 days, 5 mg/kg): 90% | Antitumor effect (%) ([8]; FIG. 3, 21 days, 10 mg/kg): 96% | Antitumor effect (%) ([8]; FIG. 4, 21 days, 10 mg/kg): 77% | Antitumor effect (%) ([8]; FIG. 12, 14 days, 5 mg/kg): 75%
